Results as given in patent publication US12433293B2, “Herbicidal compositions” (BAYER AKTIENGESELLSCHAFT, priority 2019, dated 2025).

Test system: harmful plant species
Experiment: Specific trial examples: synergistic effect (Δ) of herbicidal binary compositions applied by the post-emergence method, observed vs Colby expected value (Tables 3.1-3.4)
Type: in vivo
[1] = 1 g a.i./ha, post-emergence (Z25)
[2] = 1 g a.i./ha, post-emergence (Z26)
[3] = 4 g a.i./ha, post-emergence (Table 3.2, Z25)
[4] = 5 g a.i./ha, post-emergence (Table 3.2, Z25)
[5] = 16 g a.i./ha, post-emergence (Table 3.2, Z25)

## O=C(O)CNCP(=O)(O)O [(B7.5) Glyphosate]
50 g a.i./ha, post-emergence
  Herbicidal action 28 DAT [%] against Centaurea cyanus: 10%
  Herbicidal action 28 DAT [%] against Phalaris minor: 30%
50 g a.i./ha, post-emergence (Z26)
  Herbicidal action 21 DAT [%] against Amaranthus palmeri: 60%
150 g a.i./ha, post-emergence
  Herbicidal action 14 DAT [%] against Centaurea cyanus: 50%
  Herbicidal action 28 DAT [%] against Bromus sterilis: 80%
  Herbicidal action 28 DAT [%] against Centaurea cyanus: 40%
  Herbicidal action 28 DAT [%] against Lolium rigidum: 30%
  Herbicidal action 28 DAT [%] against Matricaria inodora: 70%
150 g a.i./ha, post-emergence (Z26)
  Herbicidal action 21 DAT [%] against Kochia Scoparia: 20%
450 g a.i./ha, post-emergence
  Herbicidal action 14 DAT [%] against Centaurea cyanus: 60%
  Herbicidal action 28 DAT [%] against Bromus sterilis: 90%
  Herbicidal action 28 DAT [%] against Centaurea cyanus: 60%
  Herbicidal action 28 DAT [%] against Lolium rigidum (resistant biotype): 70%
  Herbicidal action 28 DAT [%] against Poa annua L.: 85%
720 g a.i./ha, post-emergence
  Herbicidal action 16 DAT [%] against Richardia scabra: 62%
  Herbicidal action 42 DAT [%] against Geranium dissectum: 50%
  Herbicidal action 42 DAT [%] against Malva pusilla: 0%
  Herbicidal action 45 DAT [%] against Amaranthus tuberculatus: 15%
  Herbicidal action 45 DAT [%] against Ipomoea ssp: 0%
  Herbicidal action 45 DAT [%] against Lysimachia nummularia: 7%

## C=C[C@]1(C(=O)N[C@H]2C=C[C@@H](C(=O)OC)C2)CC(c2cc(F)cc(F)c2)=NO1 [Compound A1, methyl (1S,4R)-4-[[[(5S)-3-(3,5-difluorophenyl)-5-vinyl-4H-1,2-oxazol-5-yl]carbonyl]amino]cyclopent-2-ene-1-carboxylate]
1 g a.i./ha, post-emergence
  Herbicidal action 14 DAT [%] against Lolium rigidum (resistant biotype): 20%
  Herbicidal action 14 DAT [%] against Phalaris minor: 30%
  Herbicidal action 14 DAT [%] against Veronica hederifolia: 30%
  Herbicidal action 28 DAT [%] against Bromus sterilis: 30%
  Herbicidal action 28 DAT [%] against Lolium rigidum (resistant biotype): 20%
  Herbicidal action 28 DAT [%] against Poa annua L.: 30%
1 g a.i./ha, post-emergence (Table 3.2, Z25)
  Herbicidal action 14 DAT [%] against Phalaris minor: 30%
[1]
  Herbicidal action 14 DAT [%] against Centaurea cyanus: 10%
  Herbicidal action 28 DAT [%] against Centaurea cyanus: 10%
  Herbicidal action 28 DAT [%] against Lolium rigidum: 30%
  Herbicidal action 28 DAT [%] against Matricaria inodora: 50%
[2]
  Herbicidal action 14 DAT [%] against Centaurea cyanus: 10%
  Herbicidal action 28 DAT [%] against Centaurea cyanus: 10%
  Herbicidal action 28 DAT [%] against Lolium rigidum: 30%
  Herbicidal action 28 DAT [%] against Matricaria inodora: 50%
  Herbicidal action 28 DAT [%] against Poa annua L.: 30%
1.7 g a.i./ha, post-emergence
  Herbicidal action 21 DAT [%] against Setaria viridis: 85%
4 g a.i./ha, post-emergence
  Herbicidal action 14 DAT [%] against Alopecurus myosuroides: 80%
  Herbicidal action 14 DAT [%] against Centaurea cyanus: 30%
  Herbicidal action 14 DAT [%] against Lolium rigidum: 70%
  Herbicidal action 14 DAT [%] against Matricaria inodora: 70%
  Herbicidal action 14 DAT [%] against Phalaris minor: 75%
  Herbicidal action 14 DAT [%] against Poa annua L.: 80%
  Herbicidal action 28 DAT [%] against Alopecurus myosuroides: 85%
  Herbicidal action 28 DAT [%] against Centaurea cyanus: 30%
  Herbicidal action 28 DAT [%] against Lolium rigidum: 75%
  Herbicidal action 28 DAT [%] against Phalaris minor: 70%
  Herbicidal action 28 DAT [%] against Poa annua L.: 85%
  Herbicidal action 28 DAT [%] against Veronica hederifolia: 40%
[3]
  Herbicidal action 14 DAT [%] against Phalaris minor: 75%
  Herbicidal action 28 DAT [%] against Lolium rigidum: 75%
  Herbicidal action 28 DAT [%] against Phalaris minor: 70%
  Herbicidal action 28 DAT [%] against Poa annua L.: 85%
4 g a.i./ha, post-emergence (Z25)
  Herbicidal action 28 DAT [%] against Lolium rigidum (resistant biotype): 40%
4 g a.i./ha, post-emergence (Z26)
  Herbicidal action 28 DAT [%] against Lolium rigidum (resistant biotype): 40%
5 g a.i./ha, post-emergence
  Herbicidal action 21 DAT [%] against Abutilon theophrasti: 60%
  Herbicidal action 21 DAT [%] against Ipomoea purpurea: 80%
  Herbicidal action 21 DAT [%] against Kochia Scoparia: 75%
  Herbicidal action 21 DAT [%] against Setaria viridis: 90%
[4]
  Herbicidal action 21 DAT [%] against Abutilon theophrasti: 60%
  Herbicidal action 21 DAT [%] against Kochia Scoparia: 75%
5 g a.i./ha, post-emergence (Z25)
  Herbicidal action 21 DAT [%] against Amaranthus palmeri: 30%
5 g a.i./ha, post-emergence (Z26)
  Herbicidal action 21 DAT [%] against Amaranthus palmeri: 30%
15 g a.i./ha, post-emergence
  Herbicidal action 21 DAT [%] against Amaranthus palmeri: 40%
  Herbicidal action 21 DAT [%] against Ipomoea purpurea: 80%
  Herbicidal action 21 DAT [%] against Kochia Scoparia: 80%
15 g a.i./ha, post-emergence (Table 3.2, Z25)
  Herbicidal action 21 DAT [%] against Kochia Scoparia: 80%
15 g a.i./ha, post-emergence (Z26)
  Herbicidal action 21 DAT [%] against Kochia Scoparia: 80%
16 g a.i./ha, post-emergence
  Herbicidal action 14 DAT [%] against Alopecurus myosuroides: 85%
  Herbicidal action 14 DAT [%] against Centaurea cyanus: 40%
  Herbicidal action 14 DAT [%] against Lolium rigidum: 80%
  Herbicidal action 14 DAT [%] against Poa annua L.: 80%
  Herbicidal action 14 DAT [%] against Veronica hederifolia: 70%
  Herbicidal action 28 DAT [%] against Centaurea cyanus: 50%
  Herbicidal action 28 DAT [%] against Matricaria inodora: 85%
  Herbicidal action 28 DAT [%] against Phalaris minor: 85%
[5]
  Herbicidal action 28 DAT [%] against Matricaria inodora: 85%
  Herbicidal action 28 DAT [%] against Phalaris minor: 85%
16 g a.i./ha, post-emergence (Z26)
  Herbicidal action 28 DAT [%] against Phalaris minor: 85%
45 g a.i./ha, post-emergence
  Herbicidal action 21 DAT [%] against Kochia Scoparia: 85%
100 g a.i./ha, post-emergence
  Herbicidal action 16 DAT [%] against Richardia scabra: 48%
  Herbicidal action 42 DAT [%] against Geranium dissectum: 17%
  Herbicidal action 42 DAT [%] against Malva pusilla: 0%
  Herbicidal action 45 DAT [%] against Amaranthus tuberculatus: 57%
  Herbicidal action 45 DAT [%] against Ipomoea ssp: 57%
  Herbicidal action 45 DAT [%] against Lysimachia nummularia: 25%
